Where two headings read alike, the source gives them in different places.
Columns and labels:
[1] = Pharmacokinetic study (LC-MS/MS plasma concentration); type: in vivo, Sprague-Dawley rats; conditions: rat; for MRT last: read-out: MRT0-t
Procedure: Eight Sprague–Dawley rats (220–250 g, female) were bought from the Laboratory Animal Center of Nanfang Medical University (Guangzhou, China), and maintained and monitored in a specific pathogen-free environment. They were fasted overnight before the experiments. All rat studies were conducted according to protocols approved by the Animal Ethics Committee of our institute. Four rats were administered with 6-OAP (30 mg/kg) by intravenous injection, and the other four rats were inoculated with 6-OAP (40 mg/kg) by intraperitoneal injection. Blood samples of 100–200 µL were collected from the orbit at the time points indicated. The plasma concentrations of 6-OAP were determined by LC-MS/MS. The pharmacokinetic parameters were obtained from the pharmacokinetic software DAS 2.0 (Drug and Statistics Version 2.0).

[2] = system: U266 cells; assay: U266 xenograft murine model; type: in vivo, BALB/c nude mice
Procedure: All mice used in this study were bred and maintained in a specific pathogen-free environment. BALB/c nude mice (6 to 7 weeks old) were obtained from the Shanghai Laboratory Animal Center (Shanghai, China), and maintained and monitored in a specific pathogen-free environment. All animal studies were conducted according to protocols approved by the Animal Ethics Committee of our institute. The mice were injected subcutaneously with 1×10^7 U266 cells in 100 µL RPMI-1640 media into the right flank. Treatments were started when the tumors reached a palpable size. The control group received vehicle (0.8% DMSO/18% Cremophor/8% Ethanol in normal saline), while the other two groups received intraperitoneally injection of 6-OAP (50 or 75 mg/kg per day, five times a week for 4 weeks). Caliper measurements of the longest perpendicular tumor diameters were performed twice a week to estimate the tumor volume, using the following formula: 4π/3× (width/2)^2× (length/2), representing the 3-dimensional volume of an ellipse. Animals were sacrificed when tumors reached 2 cm or if the mice appeared moribund to prevent unnecessary morbidity to the mice. At the time of the animals' death, tumors were excised; cells were separated and subjected to immunofluorescence analysis or lyzed for Western blotting.
Figure 6 In vivo therapeutic efficacy of 6-OAP on human MM murine model. Nude mice were given subcutaneous inoculations in the right flank with 1×10^7 U266 cells. When the tumors reached a palpable size, the mice were treated intraperitoneally with vehicle or 6-OAP (50 or 75 mg/kg, 5 times a week for 4 weeks). […] (C) Survival curve of control and 6-OAP-treated mice. […] (E) Tumor samples were harvested from mice treated with vehicle or 50 mg/kg 6-OAP and subjected to immunofluorescence analysis using an anti-α-tubulin antibody and DAPI. (F) Tumor tissues were harvested from mice treated with vehicle or 50 mg/kg 6-OAP, whole-tissue lysates were subjected to Western blotting using an anti-cyclin B1 antibody. (G) The concentration-time profiles of 6-OAP after intravenous (30 mg/kg) or intraperitoneal (40 mg/kg) injection of 6-OAP in Sprague-Dawley rats.

[3] = system: MM.1R; assay: MTT cell proliferation assay; type: cell-based; conditions: Homo sapiens, 48 h
Procedure: (§1) U266, RPMI 8226 cells (1×10^4), primary CD138+ cells, PBMCs (5×10^4), and BMSCs (1×10^4) were cultured in 96-well dishes and incubated without or with 6-OAP at indicated concentration for 48 h. MM.1S and MM.1R cells (2×10^4) were seeded into 96-well dishes and pre-cultured for 24 h, then treated with 6-OAP for 48 h. Cell proliferation was determined by MTT assay. Cell viability was estimated by trypan blue dye exclusion.

[4] = system: U266; assay: MTT cell proliferation assay; type: cell-based; conditions: Homo sapiens, U-266, 48 h
Procedure: as §1

[5] = system: MM.1S; assay: MTT cell proliferation assay; type: cell-based; conditions: Homo sapiens, MM1.S, 48 h
Procedure: as §1

[6] = system: RPMI 8226; assay: MTT cell proliferation assay; type: cell-based; conditions: Homo sapiens, 48 h
Procedure: as §1

[7] = system: Bacillus subtilis; set-up: method as in PMID 9461679, PMID 8657743, PMID 12521264; conditions: cited from earlier work
[8] = system: U266, RPMI 8226, MM.1S, and MM.1R cells; assay: MTT assay, MM cell lines together; type: cell-based; conditions: Homo sapiens, range over the four MM cell lines
Procedure: as §1

[9] = system: human HL-60 leukemia cells; set-up: method as in PMID 18077129; conditions: mitochondrial/caspase and NF-κB pathway; cited from earlier work
[10] = system: MM.1S cells; assay: MTT assay, 6-OAP combined with Dox, Dex or BOR; type: cell-based, human; conditions: 48 h, 6-OAP 5 µM, in particular Dox and BOR
Procedure: as §1
Figure 4 6-OAP enhances cytotoxicity of Dox, Dex and BOR to MM cells. (A through C) MM.1S cells were treated for 48 h with Dox (A), Dex (B) or BOR (C) in the presence or absence of 6-OAP at 5 µM. MTT assay was used to test the proliferation of MM.1S cells. (D) MM.1R cells were treated for 48 h with Dex in the presence or absence of 6-OAP at 7.5 µM. MTT assay was used to test the proliferation of MM.1R cells. *p<.001,** p<.05. (E) MM.1S cells were cultured with control media (con), 6-OAP (O, 5 µM), BOR (B, 3 nM), or 6-OAP (5 µM) plus BOR (3 nM) (OB) for indicated time points. Cells were then lysed and subjected to Western blotting using indicated antibodies. CF, cleavage fragment.

[11] = female, Sprague-Dawley, in vivo, ip (40 mg/kg)
[12] = female, Sprague-Dawley, in vivo, iv (30 mg/kg)

## CC=C(C)C(=O)OC1C2C(CC(C)C3C=CC(=O)C31C)OC(=O)C2C (stereo not drawn) [6-OAP, 6-O-angeloylplenolin]
[1]; [11]
  AUC(0-t): 18000 ± 2700 ng·h/mL
  Cmax: 3870 ± 1120 ng/mL
  half-life: 4.68 ± 0.463 h
  MRT last: 5.75 ± 1.03 h
[1]; female, Sprague-Dawley, in vivo, ip (40 mg/kg), read-out: BA (bioavailability)
  bioavailability: 92.5%
[1]; [12]
  AUC(0-t): 14700 ± 1020 ng·h/mL
  Cmax: 16400 ± 1940 ng/mL
  half-life: 1.76 ± 0.453 h
  MRT last: 1.44 ± 0.448 h
[1]; female, Sprague-Dawley, in vivo, iv (30 mg/kg), read-out: CLz (converted)
  clearance: 34.1 mL/min/kg
[1]; female, Sprague-Dawley, in vivo, ip, 40 mg/kg, ip 40 mg/kg, read-out: time of peak concentration (converted)
  Tmax: 0.813 h
[1]; female, Sprague-Dawley, in vivo, ip, 40 mg/kg, ip (40 mg/kg), read-out: Tmax
  Tmax: 0.813 ± 0.08 h
[1]; female, Sprague-Dawley, in vivo, iv, 30 mg/kg, iv 30 mg/kg, read-out: time of peak concentration (converted)
  Tmax: 0.033 h
[1]; female, Sprague-Dawley, in vivo, iv, 30 mg/kg, iv (30 mg/kg), read-out: Tmax
  Tmax: 0.033 h
[1]; ip 40 mg/kg
  CLz: 37.33 ± 5.58 mL/min/kg
  peak plasma concentration: 11.191 ± 3.225 µM
[1]; iv 30 mg/kg
  peak plasma concentration: 47.506 ± 5.595 µM
[2]; 50 mg/kg, Western blotting, vs control mice
  cyclin B1 in tumor tissues: accumulated
[2]; 50 mg/kg, immunofluorescence, anti-α-tubulin
  spindle formation in tumor samples: apparent spindle formation was detected
[2]; 50 and 75 mg/kg ip, five times a week for four weeks, vs vehicle, P<.0001
  tumor growth: significantly inhibited tumor growth
[2]; 50 or 75 mg/kg ip, 4 weeks
  body weight of mice: did not reduce body weight
[2]; 50 or 75 mg/kg ip, vs vehicle control
  survival: prolonged
[3]
  IC50: 9.2 ± 2.1 µM
[4]
  IC50: 8.6 ± 0.5 µM
[5]
  IC50: 6.1 ± 0.4 µM
[6]
  IC50: 3.5 ± 0.3 µM
[7]
  antibacterial activity: exhibit antibacterial activity
[8]
  IC50: 3.5 to 9.2 µM
[9]
  apoptosis: induce apoptosis
[10]
  effect on cytotoxicity of Dox, Dex, BOR: significantly enhanced cytotoxicity

From publication PMC3130785, “Small Compound 6-O-Angeloylplenolin Induces Mitotic Arrest and Exhibits Therapeutic Potentials in Multiple Myeloma” (PLoS ONE, 2011)
